Values belong to the molecule of their own block, whether it stands above or below them.
Assays:
Human GPR120 short form = target: T1, Human GPR120 short form (Homo sapiens, UniProt Q5NUL3); assay: Human GPR120 calcium flux assay, Procedure Calcium B (4200 cells/well); assay type: cell-based
T1 construct: expressed in transfected cells
T1 sequence (Q5NUL3 1-361): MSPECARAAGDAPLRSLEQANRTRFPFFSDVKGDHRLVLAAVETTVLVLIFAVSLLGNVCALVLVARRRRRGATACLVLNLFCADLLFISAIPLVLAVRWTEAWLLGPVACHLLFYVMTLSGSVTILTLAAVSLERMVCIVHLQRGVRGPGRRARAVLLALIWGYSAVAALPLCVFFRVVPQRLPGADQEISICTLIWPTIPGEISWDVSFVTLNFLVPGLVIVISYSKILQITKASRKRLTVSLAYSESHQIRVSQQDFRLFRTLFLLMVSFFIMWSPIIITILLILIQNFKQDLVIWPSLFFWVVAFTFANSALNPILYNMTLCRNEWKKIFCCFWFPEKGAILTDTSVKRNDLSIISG
Method in brief: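 Agonist EC50 came from a four-parameter fit of RFU (Fmax−Fmin) read over 300 s on FLIPR. Cells were HEK293 stably transfected with human GPR120 (NM_001195755.1) at 4200 per well, serum-starved 1 h and loaded with Fluo-4 NW dye with probenecid before ligand addition.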

human GPR40 = target: T2, human GPR40 (Homo sapiens, UniProt O14842); assay: GPR40 calcium flux assay, human GPR40; assay type: cell-based; conditions: HEK293 cells stably expressing GPR40; table does not say human or rat
T2 construct: expressed in transfected cells
Method in brief: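 Cells preincubated 1 h at 37° C. in HBSS, 20 mM HEPES, 0.1% BSA, then Fluo 8 calcium dye 30 min at 37° C. and 15 min at room temperature.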

T2 sequence (O14842 whole entry): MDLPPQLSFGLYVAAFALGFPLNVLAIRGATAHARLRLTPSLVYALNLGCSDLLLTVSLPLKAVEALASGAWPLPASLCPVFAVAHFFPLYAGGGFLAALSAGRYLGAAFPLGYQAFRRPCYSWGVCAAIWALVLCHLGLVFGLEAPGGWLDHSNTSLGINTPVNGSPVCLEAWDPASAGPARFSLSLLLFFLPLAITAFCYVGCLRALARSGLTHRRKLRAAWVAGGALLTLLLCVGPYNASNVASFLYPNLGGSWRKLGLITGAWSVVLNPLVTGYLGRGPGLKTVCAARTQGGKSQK

SMILES: Cc1cc(OCC2=C(C3CC3)CCC2)c(F)cc1CCC(=O)O [Compound 373, 3-[4-[(2-cyclopropylcyclopenten-1-yl)methoxy]-5-fluoro-2-methyl-phenyl]Propanoic Acid]
EC50 (Human GPR120 short form): 1.45 µM
EC50 (human GPR40): 2.38 µM

SMILES: O=C(O)CCc1ccc(OCC2=C(C3CCCC3)CCC2)c(F)c1C(F)(F)F [Compound 435, 3-[4-[(2-cyclopentylcyclopenten-1-yl)methoxy]-3-fluoro-2-(trifluoromethyl)phenyl]Propanoic Acid]
EC50 (Human GPR120 short form): > 5 µM
EC50 (human GPR40): > 10 µM

SMILES: O=C(O)CCc1cc(F)c(OCC2=C(c3ccc(Cl)cc3)CCC2)cc1C(F)(F)F [Compound 91, 3-[4-[[2-(4-chlorophenyl)cyclopenten-1-yl]methoxy]-5-fluoro-2-(trifluoromethyl)phenyl]Propanoic Acid]
EC50 (Human GPR120 short form): > 5 µM
EC50 (human GPR40): > 5 µM

SMILES: O=C(O)CCc1cc(Br)c(OCC2=C(c3ccc(Cl)cc3)CCC2)c(Br)c1C(F)(F)F [Compound 101, 3-[3,5-dibromo-4-[[2-(4-chlorophenyl)cyclopenten-1-yl]methoxy]-2-(trifluoromethyl)phenyl]Propanoic Acid]
EC50 (Human GPR120 short form): 1.23 µM
EC50 (human GPR40): > 5 µM

SMILES: O=C(O)CCc1ccc(OCC2=C(C3=CCCCC3)CCC2)cc1Cl [Compound 355, 3-[2-chloro-4-[[2-(cyclohexen-1-yl)cyclopenten-1-yl]methoxy]phenyl]Propanoic Acid]
EC50 (Human GPR120 short form): > 5 µM
EC50 (human GPR40): 3.69 µM

SMILES: Cc1cc(OCC2=C(c3ccc(Cl)cc3C)CCC2)c(F)cc1CCC(=O)O [Compound 286, 3-[4-[[2-(4-chloro-2-methyl-phenyl)cyclopenten-1-yl]methoxy]-5-fluoro-2-methyl-phenyl]Propanoic Acid]
EC50 (Human GPR120 short form): 2.9 µM
EC50 (human GPR40): 0.245 µM

SMILES: CC1CCC(c2ccccc2)=C1COc1ccc(CCC(=O)O)c(C(F)(F)F)c1 (stereo not drawn) [Compound 367, 3-[4-[(5-methyl-2-phenyl-cyclopenten-1-yl)methoxy]-2-(trifluoromethyl)phenyl]Propanoic Acid]
EC50 (Human GPR120 short form): 1.14 µM
EC50 (human GPR40): 1.51 µM

SMILES: Cc1c(CCC(=O)O)ccc(OCC2=C(c3ccc(Cl)cc3)C(C(C)C)CC2)c1C (stereo not drawn) [Compound 46, 3-[4-[[2-(4-chlorophenyl)-3-isopropyl-cyclopenten-1-yl]methoxy]-2,3-dimethyl-phenyl]Propanoic Acid]
EC50 (Human GPR120 short form): > 5 µM
EC50 (human GPR40): > 5 µM

SMILES: CC(O)c1cc(OCC2=C(C3CCCC3)CCC2)ccc1CCC(=O)O (stereo not drawn) [Compound 443, 3-[4-[(2-cyclopentylcyclopenten-1-yl)methoxy]-2-(1-hydroxyethyl)phenyl]Propanoic Acid]
EC50 (Human GPR120 short form): > 5 µM
EC50 (human GPR40): 1.58 µM

SMILES: COC1CCC(c2ccccc2C)=C(COc2ccc(CCC(=O)O)cc2)C1 (stereo not drawn) [Compound 575, 3-[4-[[5-methoxy-2-(o-tolyl)cyclohexen-1-yl]methoxy]phenyl]Propanoic Acid]
EC50 (Human GPR120 short form): > 5 µM
EC50 (human GPR40): > 5 µM

SMILES: O=C(O)CCc1ccc(OCC2=C(C3CCC3)CCC2)cc1Cl [Compound 400, 3-[2-chloro-4-[(2-cyclobutylcyclopenten-1-yl)methoxy]phenyl]Propanoic Acid]
EC50 (Human GPR120 short form): 0.995 µM
EC50 (human GPR40): 0.135 µM

SMILES: O=C(O)CCc1ccc(OCC2=C(Cc3cccc(F)c3)CCC2)cc1C(F)(F)F [Compound 361, 3-[4-[[2-[(3-fluorophenyl)methyl]cyclopenten-1-yl]methoxy]-2-(trifluoromethyl)phenyl]Propanoic Acid]
EC50 (Human GPR120 short form): 3.3 µM
EC50 (human GPR40): 0.131 µM

SMILES: O=C(O)CCc1cc(F)c(OCC2=C(c3ccco3)CCC2)c(F)c1 [Compound 209, 3-[3,5-difluoro-4-[[2-(2-furyl)cyclopenten-1-yl]methoxy]phenyl]Propanoic Acid]
EC50 (Human GPR120 short form): 4.64 µM
EC50 (human GPR40): > 5 µM

The next lines start with the values.

EC50 (Human GPR120 short form): 0.16 µM
EC50 (human GPR40): > 5 µM
SMILES: COc1ccc(C2=C(COc3c(F)cc(CCC(=O)O)cc3F)CCC2)cn1 [Compound 221, 3-[3,5-difluoro-4-[[2-(6-methoxy-3-pyridyl)cyclopenten-1-yl]methoxy]phenyl]Propanoic Acid]

EC50 (Human GPR120 short form): 0.192 µM
EC50 (human GPR40): 0.247 µM
SMILES: Cc1ccc(C2=C(COc3ccc(CCC(=O)O)c(C(F)(F)F)c3)CCC2)cc1F [Compound 282, 3-[4-[[2-(3-fluoro-4-methyl-phenyl)cyclopenten-1-yl]methoxy]-2-(trifluoromethyl)phenyl]Propanoic Acid]

EC50 (Human GPR120 short form): 0.495 µM
EC50 (human GPR40): 3.52 µM
SMILES: COc1ccc(C2=C(COc3cc(C)c(CCC(=O)O)cc3F)CCC2)cc1 [Compound 279, 3-[5-fluoro-4-[[2-(4-methoxyphenyl)cyclopenten-1-yl]methoxy]-2-methyl-phenyl]Propanoic Acid]

EC50 (Human GPR120 short form): 0.592 µM
EC50 (human GPR40): 0.418 µM
SMILES: O=C(O)CCc1ccc(OCC2=C(C3CCC3)CCC2)cc1 [Compound 397, 3-[4-[(2-cyclobutylcyclopenten-1-yl)methoxy]phenyl]Propanoic Acid]

EC50 (Human GPR120 short form): 0.191 µM
EC50 (human GPR40): 1.3 µM
SMILES: CC1CCC(c2ccc(Cl)cc2)=C1COc1ccc(CCC(=O)O)cc1 (stereo not drawn) [Compound 332, 3-[4-[[2-(4-chlorophenyl)-5-methyl-cyclopenten-1-yl]methoxy]phenyl]Propanoic Acid]

EC50 (Human GPR120 short form): 0.278 µM
EC50 (human GPR40): 1.09 µM
SMILES: Cc1cc(OCC2=C(c3ccc(F)cc3)CC(F)(F)C2)c(F)cc1CCC(=O)O [Compound 402, 3-[4-[[4,4-difluoro-2-(4-fluorophenyl)cyclopenten-1-yl]methoxy]-5-fluoro-2-methyl-phenyl]Propanoic Acid]

EC50 (Human GPR120 short form): 0.288 µM
EC50 (human GPR40): 0.516 µM
SMILES: Cc1ccc(C2=C(COc3ccc(CCC(=O)O)c(C(F)(F)F)c3)CCC2)cc1 [Compound 307, 3-[4-[[2-(p-tolyl)cyclopenten-1-yl]methoxy]-2-(trifluoromethyl)phenyl]Propanoic Acid]

EC50 (Human GPR120 short form): 0.677 µM
EC50 (human GPR40): 0.635 µM
SMILES: CC(C)CC1=C(COc2ccc(CCC(=O)O)cc2)CCC1 [Compound 384, 3-[4-[(2-isobutylcyclopenten-1-yl)methoxy]phenyl]Propanoic Acid]

EC50 (Human GPR120 short form): 0.733 µM
EC50 (human GPR40): 2.64 µM
SMILES: CC1CCC(COc2ccc(CCC(=O)O)cc2)=C1c1ccccc1 (stereo not drawn) [Compound 321, 3-[4-[(3-methyl-2-phenyl-cyclopenten-1-yl)methoxy]phenyl]Propanoic Acid]

EC50 (Human GPR120 short form): 0.262 µM
EC50 (human GPR40): 0.134 µM
SMILES: O=C(O)CCc1ccc(OCC2=C(c3cccc(F)c3)CCC2)cc1C(F)(F)F [Compound 263, 3-[4-[[2-(3-fluorophenyl)cyclopenten-1-yl]methoxy]-2-(trifluoromethyl)phenyl]Propanoic Acid]

EC50 (Human GPR120 short form): 0.245 µM
EC50 (human GPR40): 0.248 µM
SMILES: Cc1cc(OCC2=C(C3CCCC3)CCC2)c(F)cc1CCC(=O)O [Compound 424, 3-[4-[(2-cyclopentylcyclopenten-1-yl)methoxy]-5-fluoro-2-methyl-phenyl]Propanoic Acid]

EC50 (Human GPR120 short form): 0.492 µM
EC50 (human GPR40): > 5 µM
SMILES: O=C(O)CCc1cc(F)c(OCC2=C(Cc3ccccc3)CCC2)c(F)c1 [Compound 330, 3-[4-[(2-benzylcyclopenten-1-yl)methoxy]-3,5-difluoro-phenyl]Propanoic Acid]

EC50 (Human GPR120 short form): 0.983 µM
EC50 (human GPR40): 0.205 µM
SMILES: CC1CCC(COc2ccc(CCC(=O)O)c(Cl)c2)=C1c1ccc(Cl)cc1 (stereo not drawn) [Compound 327, 3-[2-chloro-4-[[2-(4-chlorophenyl)-3-methyl-cyclopenten-1-yl]methoxy]phenyl]Propanoic Acid]

EC50 (Human GPR120 short form): 0.273 µM
EC50 (human GPR40): 0.118 µM
SMILES: O=C(O)CCc1cc(F)c(OCC2=C(C3CCCC3)CCC2)cc1Cl [Compound 450, 3-[2-chloro-4-[(2-cyclopentylcyclopenten-1-yl)methoxy]-5-fluoro-phenyl]Propanoic Acid]
